Measured values from patent US6524810B2, “Method of making bioluminescent assay reagent based on non-viable E. coli” (Azur Environmental, priority 1998, dated 2003).

What was measured:
Assay type in all cases: cell-based
[1] = test system: control (Zeocin untreated) recombinant bioluminescent E. coli HB101 assay reagent; experiment: ZnSO4 sensitivity assay, control assay reagent; conditions: 15 minutes exposure to ZnSO4, % toxic effect on light output
Procedure: (§1) 1. Bioluminescent genetically modified E. coil strain HB101 (E. coli HB101 made bioluminescent by transformation with a plasmid carrying the lux operon of vibrio fischeri constructed by the method of Shaw and Kado, as described in Biotechnology 4: 560-564) was grown in fermenter as a batch culture in low salt medium (LB(5 g/ml NaCl)+glycerol+MgSO4).
(§2) 2. Two aliquots of the culture were removed from the fermenter into separate sterile shaker flasks at each of three different stages of growth i.e. at OD630 values of 0.038 (lag phase growth), 1.31 (mid-exponential phase growth) and 2.468 (stationary phase growth).
4. An equal volume of water was added to the second aliquot of culture for each of the three growth stages and the cultures processed into assay reagent as described above.
(§3) 5. Samples of each of the three Zeocin™ treated and three control assay reagents were then evaluated for sensitivity to toxicant (ZnSO4) according to the following assay protocol:
1. […]
2. […] Base line (time zero) readings of light output were then measured for each of the reconstituted reagents. […]
(§4) 4. The vials were incubated at room temperature and light output readings were taken 5, 10, 15, 20, 25 and 30 minutes after addition of ZnSO4 solution.
5. The % toxic effect for each sample was calculated as follows: [formula] […]
Ct=light in control at reading time […]
(§5) St=light in sample at reading time

[2] = test system: Zeocin treated recombinant bioluminescent E. coli HB101 assay reagent; experiment: ZnSO4 sensitivity assay, Zeocin treated assay reagent; conditions: for SENSITIVITY-EC50 VALUES, ZEOCIN TREATED: 15 minutes exposure to ZnSO4, % toxic effect on light output
Procedure: as §1, §2
3. One aliquot of culture for each of the three growth stages was inactivated by contact with Zeocin™ (1 mg Zeocin™ added per 2.5×10^6 cells, i.e. the concentration of Zeocin™ per cell is kept constant) for 300 minutes and then processed into assay reagent by freeze drying and reconstitution, as described in part (B) of Example 1.
as §3
1. ZnSO4 solutions were prepared in pure water at 30, 10, 3, 1, 0.3 and 0.1 ppm. Pure water was also used as a control.
2. Seven vials of each of the three Zeocin™ treated and each of the three control assay reagents (i.e. one for each of the six ZnSO4 solutions and one for the pure water control) were reconstituted using 0.5 ml of reconstitution solution (eg 0.2M sucrose) and then left to stand at room temperature for 15 minutes to allow the light output to stabilize. Base line (time zero) readings of light output were then measured for each of the reconstituted reagents.
3. 0.5 ml aliquots of each of the six ZnSO4 solutions and the pure water control were added to separate vials of reconstituted assay reagent. This was repeated for each of the different Zeocin™ treated and control assay reagents.
as §4
5. The % toxic effect for each sample was calculated as follows: [formula]
where: Co=light in control at time zero
Ct=light in control at reading time
So=light in sample at time zero
as §5

[3] = test system: recombinant bioluminescent E. coli strain HB101; experiment: Inactivation of bioluminescent E. coli: viable count time course; conditions: 1.5 mg/ml Zeocin; exponential growth phase culture
Procedure: (§6) 1. Bioluminescent genetically modified E. coil strain HB101 (E. coli HB101 made bioluminescent by transformation with a plasmid carrying the lux operon of Vibrio fischeri constructed by the method of Shaw and Kado, as described in Biotechnology 4: 560-564) were grown from a frozen stock in 5 ml of low salt medium (LB (5 g/ml NaCl)+glycerol+MgSO4) for 24 hours.
(§7) 2. 1 ml of the 5 ml culture was then used to inoculate 200 ml of low salt medium in a shaker flask and the resultant culture grown to an OD630 of 0.407 (exponential growth phase).
(§8) 3. 50 ml of this culture was removed to a fresh sterile shaker flask (control cells).
4. Zeocin™ was added to the 150 ml of culture in the original shaker flash, to a final concentration of 1.5 mg/ml. […]
5. The time course of cell inactivation was monitored by removing samples from the culture at 5, 60, 120, 180, 240 and 300 minutes after the addition of Zeocin™ and taking measurements of both light output (measured using a Deltatox luminometer) and viable count (per ml, determined using the method given in Example 3 below) for each of the samples. […]
5. The number of bacterial colonies present for each of the three aliquots at each of the serial dilutions were counted and the values averaged. Viable count was calculated per ml of bacterial culture.

[4] = test system: recombinant bioluminescent E. coli strain HB101; experiment: Light output of reconstituted freeze dried assay reagent; conditions: cells exposed to 1.5 mg/ml Zeocin for 5 hours, reconstituted in 0.2M sucrose
Procedure: Five hours after the addition of Zeocin™ or water the remaining bacterial cells in the Zeocin™ treated and control cultures were harvested by the centrifugation, washed (to remove traces of Zeocin™ from the Zeocin™ treated culture), re-centrifuged and resuspended in cryoprotectant to an OD630 of 0.25. 200 μl aliquots of the cells in cryoprotectant were dispensed into single shot vials, and freeze dried. Freeze dried samples of the Zeocin™ treated cells and control cells were reconstituted in 0.2M sucrose to form assay reagents and the light output of the assay reagents measured at various times after reconstitution.

[5] = test system: recombinant bioluminescent E. coli strain HB101; experiment: Light output of culture during Zeocin treatment (Deltatox luminometer); conditions: 1.5 mg/ml Zeocin; 5 to 300 minutes
Procedure: as §6, §7, §8
4. Zeocin™ was added to the 150 ml of culture in the original shaker flash, to a final concentration of 1.5 mg/ml. At the same time, an equivalent volume of water was added to the 50 ml culture removed from the original flask (control cells).
5. The time course of cell inactivation was monitored by removing samples from the culture at 5, 60, 120, 180, 240 and 300 minutes after the addition of Zeocin™ and taking measurements of both light output (measured using a Deltatox luminometer) and viable count (per ml, determined using the method given in Example 3 below) for each of the samples. Samples of the control cells were removed at 5 and 300 minutes after the addition of water and measurements of light output and viable count taken as for the Zeocin™ treated cells.

SMILES | SENSITIVITY-EC50 VALUES, CONTROL CELLS ([1]; Lag Phase assay reagent) [ppm ZnSO4] | SENSITIVITY-EC50 VALUES, CONTROL CELLS ([1]; Stationary phase assay reagent) [ppm ZnSO4] | SENSITIVITY-EC50 VALUES, ZEOCIN TREATED ([2]; Expotential phase assay reagent) [ppm ZnSO4] | SENSITIVITY-EC50 VALUES, ZEOCIN TREATED ([2]; Lag Phase assay reagent) [ppm ZnSO4] | SENSITIVITY-EC50 VALUES, ZEOCIN TREATED ([2]; Stationary phase assay reagent) [ppm ZnSO4] | contact time for complete inactivation of the culture (viable count) [3] [h] | light output of reconstituted assay reagent versus control (Zeocin untreated) cells [4] | effect of Zeocin treatment on sensitivity of assay reagent to ZnSO4 ([2]; 1 mg Zeocin per 2.5×10^6 cells for 300 minutes, three growth stages, versus control reagents) | light output from the culture with Zeocin contact time [5]
O=S(=O)([O-])[O-].[Zn+2] [ZnSO4] | 1.580 | 0.457 | 0.446 | 1.445 | 0.426 |  |  |  | 
Cc1c(N)nc([C@H](CC(N)=O)NC[C@H](N)C(N)=O)nc1C(=O)N[C@H](C(=O)N[C@H](C)[C@@H](O)[C@H](C)C(=O)N[C@H](C(=O)NCCC1=N[C@@H](c2nc(C(=O)NCCCCN=C(N)N)cs2)CS1)[C@@H](C)O)[C@@H](O[C@@H]1O[C@@H](CO)[C@@H](O)[C@H](O)[C@@H]1O[C@H]1O[C@H](CO)[C@@H](O)[C@H](OC(N)=O)[C@@H]1O)c1cnc[nH]1 [Zeocin™, phleomycin D1] |  |  |  |  |  | 3 | not significantly different | does not significantly affect | decrease gradually
